Entries after “also recorded” stand apart in the source; their conditions may differ.
How the values were obtained:
[1] = system: cryoinjured TA muscle; assay: Muscle regeneration after cryoinjury: regenerative index, myogenic proteins, myofiber diameter, grip strength after bolus injection; format: in vivo, mice; conditions: for regenerative index (fraction of nuclei in embryonic MHC-positive myofibers): single bolus, combinations: prostaglandin at day 0, rosiglitazone at day 1, relative to DMSO vehicle
Source text: (§1) Some tissues were flash frozen for cryosectioning.

[2] = system: muscle stem cells and myoblasts in gastrocnemius, quadriceps and TA muscle; assay: Stem cell and myoblast activation in skeletal muscles without injury, immunofluorescence 2 days after single bolus; format: in vivo, mice; conditions: for fraction of proliferative muscle stem cells (Pax7-positive Ki67-positive cells) / total pool of muscle stem cells (Pax7-positive cells) / total pool of proliferative cells (Ki67-positive cells): without injury
Source text: as §1

[3] = system: pure primary human myoblasts; assay: Pure primary human myoblasts treated with PGI2-related drugs (Western blot, qRT-PCR); format: cell-based; conditions: pure primary human myoblasts, relative to DMSO
[4] = system: Ki67-positive proliferative progenitor cells in liver, heart, skin, hair follicles; assay: Ki67+ progenitor cells in non-skeletal muscle tissues without injury, 2 days after intra-peritoneal treprostinil; format: in vivo, mice
Source text: as §1

[5] = system: fibrosis in TA muscle, liver, skin and heart of 2-year old mice; assay: Aging-induced fibrosis and fibrotic precursors in 2-year old mice after daily injection; format: in vivo; conditions: for relative changes in the % fibrotic area (Masson trichrome staining) / relative changes in the percentage fraction of fibrotic precursors (PGDFRA-positive and Ki67-positive): 7 days post-injection, 2-year old mice
Source text: as §1

[6] = gastrocnemius muscle, 2 days after intramuscular single bolus, PPARD drugs
[7] = gastrocnemius muscle, 2 days after intraperitoneal single bolus, with or without fenofibrate or WY-14643
[8] = TA muscle, 2 days after intramuscular single bolus, with or without HGF
[9] = gastrocnemius muscle, 2 days after intra-peritoneal single bolus
[10] = quadriceps muscles, 2 days after intra-peritoneal single bolus

What does the source list for `O=C(NCCS(=O)(=O)c1ccc(C(F)(F)F)cn1)c1ccc(Cl)cc1` [GSK3787]?
regenerative index (fraction of nuclei in embryonic MHC-positive myofibers) ([1]; TA muscle 6.5 days post-injury): not; percentage fraction of proliferative muscle stem cells (Pax7-positive Ki67-positive cells) [2, 6]: no effect; percentage fraction of proliferative myoblasts (MyoD-positive Ki67-positive cells) [2, 6]: slightly increased

For `Cc1cc(SCc2sc(-c3ccc(C(F)(F)F)c(F)c3)nc2C)ccc1OCC(=O)O` [GW0742], which “regenerative index (fraction of nuclei in embryonic MHC-positive myofibers)” value ([1]; TA muscle 6.5 days post-injury) is on record?
Its value is “significantly decrease muscle regeneration”.

What about the “percentage fraction of proliferative muscle stem cells (Pax7-positive Ki67-positive cells)” value [2, 6] of the same compound?
Its value is “surprisingly decreased”.

What about the “percentage fraction of proliferative myoblasts (MyoD-positive Ki67-positive cells)” value [2, 6] of the same compound?
Its value is “no effect”.

How did the “regenerative index (fraction of nuclei in embryonic MHC-positive myofibers)” value ([1]; TA muscle 6.5 days post-injury) turn out when `CCCCC[C@H](O)/C=C/[C@H]1C(=O)C[C@H](O)[C@@H]1C/C=C\CCCC(=O)O` [PGD2, prostaglandin D2] was run?
Its value is “slightly but significantly increase muscle regeneration; also recorded: slightly increased regeneration”.

Which “regenerative index (fraction of nuclei in embryonic MHC-positive myofibers)” value ([1]; TA muscle 6.5 days post-injury) does the source give for `CCCCC[C@H](O)/C=C/[C@@H]1[C@@H](CCCCCCC(=O)O)[C@@H](O)C[C@H]1O` [PGF1a] here?
Its value is “significantly decrease muscle regeneration; also recorded: slightly decreased regeneration”.

How did the “regenerative index (fraction of nuclei in embryonic MHC-positive myofibers)” value ([1]; TA muscle 6.5 days post-injury) turn out when `CCCCC[C@@H](/C=C/[C@H]1[C@H](CCCCCCC(=O)O)[C@H]2C[C@@H]1OO2)OO` [PGG1] was run?
Its value is “no significant effect; also recorded: did not cause significant changes”.

How did the “percentage fraction of myoblasts (MyoD-positive cells)” value [2, 7] turn out when `CC(C)OC(=O)C(C)(C)Oc1ccc(C(=O)c2ccc(Cl)cc2)cc1` [fenofibrate] was run?
The value was “no effect”.

And the “percentage fraction of proliferative myoblasts (MyoD-positive Ki67-positive cells)” value [2, 7]?
Its value is “no effect”.

How did the grip strength ([1]; 14 days post-injury, 6-week old mice, prostaglandin at 0 h, rosiglitazone at 24 h post-injury) turn out when `CCCCC[C@H](O)CC[C@@H]1[C@H]2Cc3cccc(OCC(=O)O)c3C[C@H]2C[C@H]1O` [treprostinil] was run?
Its grip strength is “partially restore grip strength”.

What about the “Pax7, MyoD, MyoG and Myh3 protein expression (Western blot densitometry)” value ([1]; TA muscle 6 days post-cryoinjury, treprostinil at day 0, rosiglitazone at day 1 in the combination) of the same compound?
Its value is “significantly increase; also recorded: could also increase”.

What about the “hypertrophic growth (myofiber cross-sectional Feret diameters)” value ([1]; TA muscle 6.5 days post-injury, prostaglandin at day 0, rosiglitazone at day 1) of the same compound?
Its value is “increase hypertrophic growth”.

What about the “regenerative index (fraction of nuclei in embryonic MHC-positive myofibers)” value ([1]; TA muscle 6.5 days post-injury) of the same compound?
The value was “significantly increase muscle regeneration”.

And the “H3K9ac and MyoD protein (Western blot)” value [3]?
Its value is “followed the same pattern of regulation as PPARG”.

What about the “PPARG protein levels (Western blot)” value [3] of the same compound?
Its value is “stabilize and/or upregulate”.

What about the “percentage fraction of proliferative muscle stem cells (Pax7-positive Ki67-positive cells)” value [2, 8] of the same compound?
The value was “significantly increased; also recorded: could increase”.

And the “percentage fraction of proliferative myoblasts (MyoD-positive Ki67-positive cells)” value [2, 8]?
The value was “slightly increased; also recorded: could increase”.

And the “fraction of proliferative muscle stem cells (Pax7-positive Ki67-positive cells)” value ([2]; TA muscle, 2 days after intramuscular single bolus)?
Its value is “significantly increased”.

What about the “fraction of proliferative muscle stem cells (Pax7-positive Ki67-positive cells)” value [2, 9] of the same compound?
Its value is “significantly increased”.

And the “total pool of muscle stem cells (Pax7-positive cells)” value [2, 9]?
The value was “significantly increased”.

And the “total pool of proliferative cells (Ki67-positive cells)” value [2, 9]?
Its value is “significantly increased”.

And the “percentage fraction of proliferative muscle stem cells (Pax7-positive Ki67-positive cells)” value [2, 6]?
The value was “significantly increased”.

What about the “percentage fraction of proliferative myoblasts (MyoD-positive Ki67-positive cells)” value [2, 6] of the same compound?
The value was “slightly increased”.

And the “percentage fraction of myoblasts (MyoD-positive cells)” value [2, 7]?
The value was “significantly increased”.

And the “percentage fraction of proliferative myoblasts (MyoD-positive Ki67-positive cells)” value [2, 7]?
Its value is “significantly increased”.

And the “fraction of proliferative muscle stem cells (Pax7-positive Ki67-positive cells)” value [2, 10]?
Its value is “significantly increased”.

What about the “total pool of muscle stem cells (Pax7-positive cells)” value [2, 10] of the same compound?
Its value is “significantly increased”.

What about the “total pool of proliferative cells (Ki67-positive cells)” value [2, 10] of the same compound?
The value was “significantly increased”.

What about the “total pool of proliferative progenitor cells (Ki67-positive cells)” value ([4]; endoderm-derived liver tissue) of the same compound?
Its value is “significantly increased”.

What about the “total pool of proliferative progenitor cells (Ki67-positive cells)” value ([4]; endoderm-derived liver tissue, listed as Treprostinil) of the same compound?
The value was “increase the total pool of Ki67+ progenitor cells”.

And the “total pool of proliferative progenitor cells (Ki67-positive cells)” value ([4]; mesoderm-derived heart and cardiac muscle tissue)?
The value was “significantly increased; also recorded: increase the total pool of Ki67+ progenitor cells”.

What about the “total pool of proliferative progenitor cells (Ki67-positive cells)” value ([4]; neuroectoderm-derived skin tissue) of the same compound?
Its value is “significantly increased; also recorded: increase”.

And the “total pool of proliferative progenitor cells (Ki67-positive cells)” value ([4]; skin tissue's telogen hair follicles)?
Its value is “significantly increased; also recorded: increase”.

And the “relative changes in the % fibrotic area (Masson trichrome staining)” value (“relative changes in the % fibrotic area” below) ([5]; TA muscle, daily injection)?
The value was “partially reverse the aged muscle fibrosis; also recorded: significant reversal of aging-induced fibrosis”.

And the “relative changes in the percentage fraction of fibrotic precursors (PGDFRA-positive and Ki67-positive)” value ([5]; TA muscle, daily injection)?
The value was “partially suppress the aged muscle fibrotic precursors”.

And the “relative changes in the % fibrotic area” value ([5]; heart tissue, daily injection)?
The value was “partially reverse the aged cardiac fibrosis”.

And the “relative changes in the percentage fraction of fibrotic precursors (PGDFRA-positive and Ki67-positive)” value ([5]; heart tissue, daily injection)?
The value was “partially suppress the aged cardiac fibrotic precursors”.

What about the “relative changes in the % fibrotic area” value ([5]; liver tissue, daily injection) of the same compound?
Its value is “partially reverse the aged liver fibrosis”.

And the “relative changes in the percentage fraction of fibrotic precursors (PGDFRA-positive and Ki67-positive)” value ([5]; liver tissue, daily injection)?
Its value is “partially suppress the aged liver fibrotic precursors”.

And the “PDGFRA+ Ki67+ fibrotic precursor numbers in multiple non-skeletal muscle tissues” value ([5]; liver, skin and heart, 2-year-old mice)?
Its value is “suppress”.

And the “aging-induced fibrosis (fibrotic area) in multiple non-skeletal muscle tissues” value ([5]; liver, skin and heart, daily injection, 2-year-old mice)?
Its value is “significant reversal of aging-induced fibrosis”.

And the “relative changes in the % fibrotic area” value ([5]; skin tissue, daily injection)?
The value was “partially reverse the aged skin fibrosis”.

And the “relative changes in the percentage fraction of fibrotic precursors (PGDFRA-positive and Ki67-positive)” value ([5]; skin tissue, daily injection)?
The value was “partially suppress the aged skin fibrotic precursors”.

For HGF: hepatocyte growth factor, which “percentage fraction of proliferative muscle stem cells (Pax7-positive Ki67-positive cells)” value [2, 8] is on record?
Its value is “significantly increased; also recorded: could increase”.

What about the “percentage fraction of proliferative myoblasts (MyoD-positive Ki67-positive cells)” value [2, 8] of the same compound?
Its value is “slightly increased; also recorded: could increase”.
